Results published in ChEMBL document CHEMBL4699595, “Ganoweberianones A and B, Antimalarial Lanostane Dimers from Cultivated Fruiting Bodies of the Basidiomycete Ganoderma weberianum” (J Nat Prod, 2020).
Calls of active or inactive are those of the source. No cut-off for these calls is given here.

What was measured:
Plasmodium falciparum = test: Antimalarial activity against multi drug-resistant Plasmodium falciparum K1 infected in human erythrocytes assessed as reduction in parasite growth preincubated for 24 hrs followed by [3H]hypoxanthine addition and measured after 18 hrs by scintillation counting method; assay type: functional, organism-based; conditions: K1, Erythrocyte
Vero = test: Cytotoxicity against African green monkey Vero cells assessed as reduction in cell viability by tryphan blue exclusion method; assay type: cell-based; conditions: Chlorocebus sabaeus
[1] = system: Mycobacterium tuberculosis; test: Antimycobacterial activity against Mycobacterium tuberculosis H37Ra ATCC 25177; assay type: functional, organism-based
[2] = Selectivity index, ratio of IC50 for cytotoxicity against African green monkey Vero cells to IC50 for antimalarial activity against multi drug-resistant Plasmodium falciparum K1 infected in human erythrocytes; assay type: toxicity, cell-based; conditions: read-out: Ratio IC50

Compound | IC50 (Plasmodium falciparum) | IC50 (Vero) | Activity [1] | selectivity ratio [2]
C[C@H](CC(=O)C[C@H](C)C(=O)O)[C@H]1C[C@@H](O)[C@@]2(C)C3=C(C(=O)C[C@]12C)[C@@]1(C)CCC(=O)[C@@](C)(CO)[C@@H]1CC3=O | ≥ 17 µM | ≥ 87 µM | inactive | 
CC(=O)O[C@@H]1C(=O)C2=C(C(=O)C[C@H]3C(C)(C)C(=O)CC[C@]23C)[C@]2(C)[C@H](O)C[C@H]([C@H](C)CC(=O)C[C@H](C)C(=O)O)[C@@]12C | ≥ 17 µM | ≥ 87 µM | inactive | 
C[C@H](CC[C@H](OC(=O)[C@@H](C)CC(=O)C[C@@H](C)[C@H]1C[C@@H](O)[C@@]2(C)C3=C(C(=O)C[C@]12C)[C@@]1(C)CCC(=O)C(C)(C)[C@@H]1CC3=O)[C@](C)(O)CO)[C@H]1CC[C@@]2(C)C3=CC[C@H]4C(C)(C)C(=O)CC[C@]4(C)C3=CC[C@]12C | 0.05 µM | 0.21 µM | inactive | 4.2
C[C@H](CC(=O)C[C@H](C)C(=O)O)[C@H]1C[C@@H](O)[C@@]2(C)C3=C(C(=O)[C@@H](O)[C@]12C)[C@@]1(C)CCC(=O)C(C)(C)[C@@H]1CC3=O | ≥ 17 µM | ≥ 87 µM | inactive | 
C[C@H](CC(=O)C[C@H](C)C(=O)O)[C@H]1C[C@@H](O)[C@@]2(C)C3=C(C(=O)C[C@]12C)[C@@]1(C)CCC(=O)C(C)(C)[C@@H]1CC3=O | ≥ 17 µM | ≥ 87 µM | inactive | 
C[C@H](CC[C@H](OC(=O)[C@@H](C)CC(=O)C[C@@H](C)[C@H]1C[C@@H](O)[C@@]2(C)C3=C(C(=O)C[C@]12C)[C@@]1(C)CC[C@@H](O)C(C)(C)[C@@H]1CC3=O)[C@](C)(O)CO)[C@H]1CC[C@@]2(C)C3=CC[C@H]4C(C)(C)C(=O)CC[C@]4(C)C3=CC[C@]12C | 0.46 µM | 10 µM | inactive | 2.2
C[C@H](CC(=O)C[C@H](C)C(=O)O)[C@H]1C[C@@H](O)[C@@]2(C)C3=C(C(=O)C[C@]12C)[C@@]1(C)CC[C@@H](O)C(C)(C)[C@@H]1CC3=O | ≥ 17 µM | ≥ 87 µM | inactive | 
